Measured values reported in ChEMBL document CHEMBL1147541, “Synthesis of fluorinated cyclopentenyladenine as potent inhibitor of S-adenosylhomocysteine hydrolase” (Bioorg Med Chem Lett, 2004).
pIC50: −log10 of the molar value.

Molecular target: Adenosylhomocysteinase (Homo sapiens, UniProt P23526)
Test: In vitro inhibitory activity against recombinant S-adenosyl-L-homocysteine hydrolase obtained from human placenta

Sequence of Adenosylhomocysteinase (P23526 whole entry): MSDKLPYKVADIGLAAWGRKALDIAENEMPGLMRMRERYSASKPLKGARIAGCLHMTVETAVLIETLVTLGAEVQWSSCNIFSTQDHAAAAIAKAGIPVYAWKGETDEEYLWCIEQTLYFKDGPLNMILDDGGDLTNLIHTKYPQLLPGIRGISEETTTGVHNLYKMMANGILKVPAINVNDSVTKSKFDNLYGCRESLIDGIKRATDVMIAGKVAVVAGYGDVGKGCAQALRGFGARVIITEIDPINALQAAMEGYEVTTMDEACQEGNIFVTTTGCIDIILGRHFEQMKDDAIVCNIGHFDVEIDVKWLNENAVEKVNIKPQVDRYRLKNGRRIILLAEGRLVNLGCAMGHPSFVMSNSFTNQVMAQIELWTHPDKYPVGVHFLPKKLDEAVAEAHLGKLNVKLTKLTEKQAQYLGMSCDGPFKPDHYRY

| SMILES | pIC50 |
| --- | --- |
| Nc1ncnc2c1ncn2[C@@H]1C(F)=C[C@@H](O)[C@H]1O | 5.05 |
| Nc1ncnc2c1ncn2[C@@H]1C=C[C@@H](O)[C@H]1O | 5.06 |
| Nc1ncnc2c1ncn2[C@@H]1C=C(CO)[C@@H](O)[C@H]1O [NEOPLANOCIN A] | 6.05 |
| Nc1ncnc2c1ncn2[C@@H]1C(F)=C(CO)[C@@H](O)[C@H]1O [FLUORO-NEPLANOCIN A] | 6.33 |
